Test results published in the supplement of paper PMC11616607.

Assays:
Assay in all cases: drug sensitivity score (DSS) from 5-point dose-response viability curve (DSS (area-under-curve based score)); higher = more sensitive (stronger growth inhibition or killing); extreme values may be limits of the assay
Conditions in all cases: exposure time: 72 h; concentration range: 5 concentrations over 10,000-fold range
CAOV3 = test system: CAOV3
Procedure, shortened: (§1)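 Each cell line and drug received a drug sensitivity score from Breeze software, where higher means more sensitive. Zero stands for no response. Scores came from CellTiter-Glo viability readings of ovarian cancer and normal ovarian cells, 1,500 per well in 384-well plates, after 3 days at 37°C, 5% CO2 with drugs at five concentrations over a 10,000-fold range.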

COV318 = test system: COV318
Procedure, shortened: as §1

COV362 = test system: COV362
Procedure, shortened: as §1

HOSE1C = test system: HOSE1C
Procedure, shortened: as §1

HOSE2C = test system: HOSE2C
Procedure, shortened: as §1

JHOS2 = test system: JHOS2
Procedure, shortened: as §1

Kuramochi = test system: Kuramochi
Procedure, shortened: as §1

OV90 = test system: OV90
Procedure, shortened: as §1

OVCAR4 = test system: OVCAR4
Procedure, shortened: as §1

OVCAR5 = test system: OVCAR5
Procedure, shortened: as §1

OVCAR8 = test system: OVCAR8
Procedure, shortened: as §1

Ovsaho = test system: Ovsaho
Procedure, shortened: as §1

SMILES	drug sensitivity score (CAOV3)	drug sensitivity score (COV318)	drug sensitivity score (COV362)	drug sensitivity score (HOSE1C)	drug sensitivity score (HOSE2C)	drug sensitivity score (JHOS2)	drug sensitivity score (Kuramochi)	drug sensitivity score (OV90)	drug sensitivity score (OVCAR4)	drug sensitivity score (OVCAR5)	drug sensitivity score (OVCAR8)	drug sensitivity score (Ovsaho)
O=C(Nc1ccc2[nH]nc(-c3ccncc3)c2c1)[C@@H]1CCN(CC(=O)N2CCN(c3ccc(-c4ncccn4)cc3)CC2)C1	12.2	0	4.9	0.2	1.1	8.4	13.2	23.5	1.7	13.4	6.7	14.1
CNC(=O)c1nn(C)c2c1C(C)(C)Cc1cnc(Nc3ccc(N4CCN(C)CC4)cc3)nc1-2 [Milciclib]	6.8	6.5	5.4	8.8	7.4	9.1	10.1	8.1	6.4	9.4	6.2	10.7
C[C@H](Nc1ncnc2[nH]cnc12)c1cc2ccc(F)cc2nc1-c1ccccn1 [AMG319]	0	0.1	0	0	0	0	1.1	0	0.7	0	0	1.2
C#Cc1cccc(Nc2ncnc3cc4c(cc23)OCCOCCOCCO4)c1 [Icotinib]	5.7	0.2	0	0	0	0.4	0.2	0	1.7	4.3	0	1.1
COc1ccc(-c2ccc3c(N4CCOC[C@@H]4C)nc(N4CCOC[C@@H]4C)nc3n2)cc1CO [AZD8055]	15.6	13.6	6.4	20.7	16.2	14.4	15.6	20.8	17.5	18.4	17.2	16.9
COc1cc2c(cc1OCCCN1CCCC1)N=C(N)C21CCC1 [A-366]	0.3	0	1.2	0.8	0	0	1.2	5.7	0.1	0.4	1	0.3
COc1cc2ncnc(Nc3ccc(F)c(Cl)c3)c2cc1NC(=O)/C=C/CN1CCCCC1 [Dacomitinib]	8	0.2	0.2	1.1	0	0.8	2.4	0.1	1.3	5	2.1	2.6
CN1CCC(COc2cnc(-c3cccc(Cn4nc(-c5cccc(C#N)c5)ccc4=O)c3)nc2)CC1 [Tepotinib]	0	0	0	0	0	0.5	0	0	0	0	0	0.8
COc1cc2c(NC3CCN(C(C)C)CC3)nc(N3CCC(F)(F)CC3)nc2cc1OCCCN1CCCC1 [UNC0642]	0.2	0	0.9	0	0	0	0	4.4	0	1	0.7	0
CNC(=O)c1cc(Oc2ccc(NC(=O)Nc3ccc(Cl)c(C(F)(F)F)c3)c(F)c2)ccn1 [Regorafenib]	2	0.6	0.6	1.6	2.7	1.3	1.2	7.9	1.6	4.4	4.1	2
CC1(COc2ccc3c(c2)ncn3-c2ccc3cccc(N4CCC(N)CC4)c3n2)COC1 [Crenolanib]	10	5.4	6.8	4.8	2.8	7.9	4	6	2.9	4.9	6.9	4.4
CN[C@@H](C)C(=O)N[C@H](C(=O)N1CCC[C@H]1c1nc(C(=O)c2ccc(F)cc2)cs1)C1CCCCC1 [NVP-LCL161]	14.4	0.8	1.9	0.7	0	9.1	1.9	5	16.4	4.1	8.5	8.6
COc1cc2/c(=N/c3ccc(Br)cc3F)nc[nH]c2cc1OCC1CCN(C)CC1 [Vandetanib]	1.7	0.6	1.3	0	0	0.6	2.9	0	1.2	1.5	0	4.7
Cc1ccc(C(=O)N(CCCN)[C@@H](c2oc3cc(Cl)ccc3c(=O)c2Cc2ccccc2)C(C)C)cc1	5.8	1	0.4	15.8	9.2	4.8	2.9	6.4	3.4	4.5	2.9	4.1
N#Cc1ccc(C(c2ccc(C#N)cc2)n2cncn2)cc1 [Letrozole]	0	0	0	0	0	0	0	0	0	0	0	0
NC(=O)Nc1cc(-c2cccc(F)c2)sc1C(=O)N[C@H]1CCCNC1 [AZD7762]	6.1	5	7	7.4	7.8	1.9	4.2	6.4	7	6.6	5.2	4
